In one test the target is SK3. Also noted: method as in Benton D.C. et al., 2013. The following applies: 125I-Apamin competition; ref Benton D.C. et al., 2013; read-out: Ki, SK3 channels; cited from earlier work.
The subject of the next test is mouse trachea. Briefly: Isometric tracheal tension measurement (organ bath). The procedure: (§1) Mice used in these studies were BALB/C mice from Jackson Labs. All animal procedures were reviewed and approved by the University of Texas Health Science Center at San Antonio Institutional Animal Care and Use Committee. For tracheal constriction studies, animals were deeply anesthetized with isoflurane and then sacrificed by cervical dislocation. Isometric tracheal contraction measurements were performed as previously described ([Semenov et al., 2012]). Trachea were removed and surrounding tissues dissected in ice-cold physiologic saline solution (PSS) consisting of 119 mM NaCl, 4.7 mM KCl, 2.0 mM CaCl2, 1.0 mM KH2PO4, 1.17 mM MgSO4, 18 mM NaHCO3, 0.026 mM EDTA, 11 mM glucose, and 12.5 mM sucrose. Trachea were cut below the pharynx and above the primary bronchus bifurcation. Two metal wires, attached to a force transducer and micrometer (Radnoti, LLC), were threaded into the lumen of the trachea. Trachea were placed into an oxygenated organ bath (95% O2, 5% CO2), at 37°C, pH 7.35 (after bubbling with 95% O2–5% CO2). Tracheal resting tension was readjusted to 1 gram over 1 h and then challenged with 67 mM potassium PSS with NaCl adjusted to 56.7 mM to maintain proper osmolarity (KPS). Trachea were challenged two or more times until reproducible contractile responses were achieved. All subsequent experimental drug responses were normalized to the KPS response. Bladder measurements were conducted in a similar manner as trachea with identical solutions. The bladder was excised and formed into a ring by cutting anterior and posterior portions before mounting on metal wires for force measurements. For the aorta preparation, the ascending thoracic aorta was excised and cut into 2–3 mm sections before mounting on wires for force measurements.

In another test the target is T1, histamine receptor H1 (Homo sapiens, UniProt P35367).
T1 construct: expressed in transfected cells; host or cells: CHO cells, transiently co-transfected with pCMV R-CEPIAer
Briefly: R-CEPIAer ER calcium assay, CHO cells transfected with H1 receptor. It is filed as cell-based. The following applies: data not shown. The procedure: The binding of antagonists to Gq-coupled receptors was determined by measuring IP3-mediated calcium depletion from the endoplasmic reticulum (ER). This was accomplished using CHO-K1 cells stably transfected with human M3 muscarinic acetylcholine receptor (CEM3000000, cDNA Resource Center, Bloomsburg University) and R-CEPIAer, a low affinity ER-targeted calcium indicator fluorescent protein ([Suzuki et al., 2014]). R-CEPIAer reporting of ER calcium concentration was assessed using 564 nm excitation light (>590 long-pass emission) at 20 second intervals on a Nikon swept-field confocal microscope using slit-scan mode, 2x2 Binning, and 100 millisecond frames. F/Fmax was fluorescence intensity normalized to maximal fluorescence intensity during the experiment. The response of cells to Gq-coupled receptor agonist were measured as the change in F/Fmax (ΔF/Fmax) from preagonist value to fluorescence minimum during agonist application (that occurs by IP3-mediated ER calcium depletion). […] Perfusion of each agonist application was for 2 min, while the antagonist overlapped and preceded the second agonist application by 3 min. […] IC50 was calculated by assaying fractional inhibition using a dose-response of antagonist concentrations (i.e. Figure 1D ). […]

The subject of the next test is aorta. Briefly: Isometric aortic ring tension measurement. The following applies: 3.5 μM; precontracted to 300 nM phenylephrine. The arrangement: species or system mouse. As for the experimental part:
as §1, with “Bladder measurements were conducted in a similar manner as trachea with identical solutions. The bladder was excised and formed into a ring by cutting anterior and posterior portions before mounting on metal wires for force measurements. For the aorta preparation, the ascending thoracic aorta was excised and cut into 2–3 mm sections before mounting on wires for force measurements.” left out

Test [1] has as its system rat primary tracheal smooth muscle cells. As to the kind of experiment: Cytosolic calcium imaging in rat tracheal smooth muscle cells. It counts as cell-based. As for the experimental part:
Rat trachea were isolated as described above, except that a guillotine was used for sacrifice instead of cervical dislocation. The dorsal muscle layer was removed from the hyaline cartilage rings and minced into ~1-mm fragments in Ca^2+-free HEPES-buffered Krebs solution (140 mM NaCl, 4.7 mM KCl, 1.13 mM MgCl2, 10 mM HEPES, 10 mM glucose, pH 7.3). The tracheal smooth muscle (TSM) fragments were digested with 2.5 U/ml papain (MP Biomedicals) with 1 mg/ml BSA fraction V and 1 mg/ml dithiothreitol at 37°C on a rocking platform (250 rotations/min) for 20 min. After washing once with the Ca^2+-free Krebs solution the TSM fragments were digested with 12.5 U/ml of type VII collagenase (Sigma Chemical) for 10 min on a rocking platform at 37°C, washed and centrifuged (750 G for two min.) three times in Ca^2+-free Krebs-BSA solution and gently triturated up to 5 min to disburse single tracheal myocytes. TSM cells were stored on ice in Ca^2+-free Krebs-BSA solution and used the same day.
TSM cells were placed on a coverslip in a 1 ml perfusion chamber on an inverted microscope and incubated with 20 μM Cal-520 AM dye (AAT Bioquest, Sunnyvale, California, USA) in 0.2% Pluronic F-127 and 1 mM probenecid in HBSS at room temperature for 30 min. The chamber was fitted with a top adaptor and coverslip (Warner Instruments, RC37WC) to establish a closed perfusion chamber. […]

Each structure is given as a SMILES string. pIC50, pKi: −log10 of the molar value.

As usually defined, the pKi is the Ki on a negative log10 scale, so that one unit is a factor of ten. As usually defined, the pIC50 is −log10 of the IC50, conventionally taken in molar units.

T1 sequence (P35367 whole entry): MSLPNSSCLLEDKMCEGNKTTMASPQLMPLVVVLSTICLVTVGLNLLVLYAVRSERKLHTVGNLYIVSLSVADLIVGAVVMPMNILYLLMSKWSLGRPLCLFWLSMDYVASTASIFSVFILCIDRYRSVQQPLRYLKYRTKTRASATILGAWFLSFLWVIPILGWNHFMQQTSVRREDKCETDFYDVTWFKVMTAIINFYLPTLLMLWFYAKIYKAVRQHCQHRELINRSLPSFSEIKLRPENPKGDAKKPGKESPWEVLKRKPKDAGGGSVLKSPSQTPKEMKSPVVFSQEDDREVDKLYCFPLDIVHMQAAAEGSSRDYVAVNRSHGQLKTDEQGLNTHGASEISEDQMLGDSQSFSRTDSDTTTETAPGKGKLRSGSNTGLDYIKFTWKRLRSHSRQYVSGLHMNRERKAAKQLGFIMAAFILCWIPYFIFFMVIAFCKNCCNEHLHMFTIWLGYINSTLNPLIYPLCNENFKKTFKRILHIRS

Consider `c1cc2cc(c1)C[n+]1ccc(c3ccccc31)NCc1ccc(cc1)CNc1cc[n+](c3ccccc13)C2` [UCL 1684, 6,12,19,20,25,26-Hexahydro-5,27:13,18:21,24-trietheno-11,7-metheno-7H-dibenzo [b,n] [1,5,12,16]tetraazacyclotricosine-5,13-diium dibromide], for which, at SK3, the pKi is 8.11. In addition, the “Relaxation of precontracted trachea” value with mouse trachea is “near complete relaxation”. Besides, the “Relaxation response of trachea, single dose” value with mouse trachea (3.5 μM, 0.5 μM carbachol) is given as 95.4 ± 2.4. The pIC50 in the test with mouse trachea (Mus musculus, read-out: IC50, relaxation of carbachol-precontracted trachea) was 6.37. In the test on mouse trachea (carbachol-evoked), the “Reduction of carbachol-evoked ASM contractions” value was above 90%. Besides, the “Washout needed to restore tracheal responses to cholinergic agonists” value with mouse trachea (data not shown) is recorded as “at least an hour of washout”. Further, the “Fractional inhibition of H1 receptor response” value at histamine receptor H1 is -0.008 ± 0.04. The “Relaxation response of aorta” value with aorta is reported as 7.8 ± 4.3. Further, the “Calcium response (integral) to second carbachol relative to first” value in test [1] (3.5 μM UCL 1684, 0.5 μM carbachol, rat TSMC) amounted to 0.42 ± 0.04. In test [1] (Rattus norvegicus, read-out: CCH-evoked cytosolic calcium, % of control), the activity at 3.5 µM is 42%.
